The values below come from patent US20120171123A1, “USES AND COMPOSITIONS FOR TREATMENT OF RHEUMATOID ARTHRITIS” (priority 2006, published 2012).

In experiment [1] the test system is MTX-naïve adult patients with early RA (<3 years). As to the kind of experiment: Study J: HAQ DI. It is filed as in vivo, human. The conditions noted are these: for HAQ DI mean change from baseline: LOCF. An excerpt:
The Health Assessment Questionnaire Disability Index (HAQ DI) is a disease-specific tool that measures patient-reported physical function in 8 categories corresponding to normal activities in daily living. Fatigue is an important yet still often overlooked systemic symptom of RA. The Functional Assessment of Chronic Illness Therapy-Fatigue (FACIT-F) tool, measured by a 13-item, validated scale, assesses the impact of a disease and its therapy on fatigue.
Study J is described in detail in the above examples. The Health Assessment Questionnaire Disability Index (HAQ DI) and Functional Assessment of Chronic Illness Therapy-Fatigue (FACIT-F) were assessed at baseline, and following 12, 26, 42, 52, 76, and 104 weeks of therapy. Changes in scores were computed by subtracting the baseline from post-treatment score for each patient; mean changes were reported for each treatment group. The HAQ DI is assessed on a scale of 0-3, with higher numbers indicating greater disability. The minimum clinically important difference (MCID) is defined as changes ≧0.22 (Goldsmith C H, et al. J Rheumatol 1993; 20-561-5). The FACIT-F is assessed on a scale of 0-52, with higher scores indicating less fatigue. Changes of ≧4 are considered clinically meaningful (Cella D, et al. J Pain Symptom Manage 2002:24:547-61).

In experiment [2] the test system is patients with long-standing RA. As to the kind of experiment: Study 4: tender and swollen joint counts. It is filed as in vivo, human. The protocol:
At the last visit, 24% of participants had 0 tender joints and 21% of participants had 0 swollen joints.
Efficacy outcomes were evaluated as observed data: DAS28; ACR 20/50/70; Tender Joint Count (TJC); Swollen Joint Count (SJC); and HAQ Disability Index. Baseline demographics and disease characteristics were similar in both Study 4 and Study 5 consistent with moderate to severe RA, as shown below in Table 64: […]

Consider `CN(Cc1cnc2nc(N)nc(N)c2n1)c1ccc(C(=O)N[C@@H](CCC(=O)O)C(=O)O)cc1` [mtx alone, methotrexate], for which the “HAQ DI mean score” value in experiment [1] (Baseline) came out at 1.48. In addition, the “HAQ DI mean change from baseline” value in experiment [1] (ΔWeek 12) is −0.53; in experiment [1] (ΔWeek 26), −0.67; in experiment [1] (ΔWeek 42), −0.68; in experiment [1] (ΔWeek 52), −0.69; in experiment [1] (ΔWeek 76), −0.68; in experiment [1] (ΔWeek 104), −0.68.

In the case of “adalimumab: human anti-TNF mAb (HUMIRA, Abbott Laboratories), described in U.S. Pat. No. 6,090,382 as D2E7”, the “SJC (0-66), % change of mean clinical improvement from baseline” value in experiment [2] (6 months) is listed as 58%; in experiment [2] (12 months), 67%; in experiment [2] (24 months), 69%; in experiment [2] (36 months), 68%; in experiment [2] (48 months), 61%. Moreover, the “TJC (0-68), % change of mean clinical improvement from baseline” value is on record as 64% in experiment [2] (6 months); 69% in experiment [2] (12 months); 72% in experiment [2] (24 months); 75% in experiment [2] (36 months); 78% in experiment [2] (48 months). Further, the “median number of swollen joints” value in experiment [2] (end of four years) turned out to be 3. For the same compound, the “median number of tender joints” value in experiment [2] (end of four years) came out at 2. In experiment [2] (last visit (n=846 analysis)), the “participants with 0 swollen joints” value stood at 21%. Further, the “participants with 0 tender joints” value in experiment [2] (last visit (n=846 analysis)) turned out to be 24%.
